In patent US6653478B2, “Substituted benzimidazol-2-ones as vasopressin receptor antagonists and neuropeptide Y modulators” (Ortho-McNeil Pharmaceutical, Inc., priority 2000, dated 2003):
Where a name gives a salt, the structure may show the parent alone.

Experiments:
[1] = biological target: T1, human V1b receptor (Homo sapiens, UniProt P47901); test: V1b functional assay, intracellular calcium mobilization in transfected HEK-293 cells (FLIPR); assay type: cell-based; design: expressed in transfected cells; host or cells: HEK-293; details: for IC50: challenge 0.5 nM AVP, read-out: Cell-Based Functional activity V1b IC50
T1 sequence (P47901 1-424): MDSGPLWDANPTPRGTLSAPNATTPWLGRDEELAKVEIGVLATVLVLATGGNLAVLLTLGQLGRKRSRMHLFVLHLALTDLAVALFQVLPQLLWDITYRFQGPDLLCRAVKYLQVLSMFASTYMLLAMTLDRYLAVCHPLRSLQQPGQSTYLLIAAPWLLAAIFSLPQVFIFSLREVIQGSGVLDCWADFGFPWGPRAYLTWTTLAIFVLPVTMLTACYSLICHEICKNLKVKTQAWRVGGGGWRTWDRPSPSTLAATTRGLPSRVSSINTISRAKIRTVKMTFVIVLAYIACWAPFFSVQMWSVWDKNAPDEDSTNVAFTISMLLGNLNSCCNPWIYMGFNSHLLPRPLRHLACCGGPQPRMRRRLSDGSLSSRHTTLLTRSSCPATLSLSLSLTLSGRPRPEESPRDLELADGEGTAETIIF
Method: V1a, V1b or V2 Functional Assay
HEK-293 cells were grown in DMEM media supplemented with 10% FBS and glutamine (Gibco BRL, Grand Island, N.Y.). Once transfected the cells were passed biweekly by trypsinization and seeded into 96 well plates at 33,000 cells per well. HEK-293 were transfected with human V1a, V1b or V2 DNA using DMRIE-C reagent from Life Technologies, Inc., Grand Island, N.Y. Cells were tested for their responsiveness to vasopressin 48 hours after transfection. Stable lines were generated by selecting cells grown in culture media containing geneticin (500 μg/ml, Life Technologies).
Intracellular calcium mobilization was measured in HEK-293 cells transfected to express either human V1a, oxytocin or V1b receptors. Cells were plated into black 96-well Packard Clear-View plates 4 to 7 days prior to use. The cells were loaded with fluo-3 AM (Molecular Probes, Inc., Eugene, Oreg.) in buffer (25 mM Hepes, 125 mM NaCl, 1 gm/l glucose, 0.1% BSA, 5 mM KCl, 0.5 mM CaCl2, 0.5 mM MgCl2, pH 7.45) containing Pluronic (Molecular Probes) Cells were incubated with 5 μM fluo-3 AM for 1 hour shielded from light at room temperature. Intracellular fluorescence was measured using FLIPR (fluorometric imaging plate reader; Molecular Devices, Inc., Sunnyvale, Calif.). The FLIPR protocol called for images to be collected at one second intervals with 50 μl of the test compound added after the initial 10 images. An additional 70 images were then taken to detect any compound agonistic activity. FLIPR then added 50 μl of agonist peptide and collected a final 40 images for quantitating compound antagonistic activity. V1a- and V1b-expressing HEK cells were challenged with 1 nM and 0.5 nM AVP, respectively. Oxytocin-expressing HEK cells were challenged with 0.5 nM oxytocin (Peninsula Labs).
The data from the cAMP accumulation and the calcium mobilization assays are expressed as IC50 values as determined from dose response curves.

[2] = biological target: human V1a receptor (Homo sapiens, UniProt P37288); test: V1a binding assay (3H-AVP displacement, HEK-293 membranes); design: expressed in transfected cells; host or cells: HEK-293 (membranes)
Method in brief: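 Membranes competed against 3H-AVP (40-87 Ci/mmol, 10,000 cpm/well) in 50 mM Tris, 5 mM MgCl2, 0.1% BSA, pH 7.5, with protease inhibitors. Incubated 1 hour at room temperature, then filtered on PEI-presoaked GF/C and scintillation counted. Non-specific binding defined with 1.25 μM AVP.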

human V1a receptor, sequence (P37288 whole entry): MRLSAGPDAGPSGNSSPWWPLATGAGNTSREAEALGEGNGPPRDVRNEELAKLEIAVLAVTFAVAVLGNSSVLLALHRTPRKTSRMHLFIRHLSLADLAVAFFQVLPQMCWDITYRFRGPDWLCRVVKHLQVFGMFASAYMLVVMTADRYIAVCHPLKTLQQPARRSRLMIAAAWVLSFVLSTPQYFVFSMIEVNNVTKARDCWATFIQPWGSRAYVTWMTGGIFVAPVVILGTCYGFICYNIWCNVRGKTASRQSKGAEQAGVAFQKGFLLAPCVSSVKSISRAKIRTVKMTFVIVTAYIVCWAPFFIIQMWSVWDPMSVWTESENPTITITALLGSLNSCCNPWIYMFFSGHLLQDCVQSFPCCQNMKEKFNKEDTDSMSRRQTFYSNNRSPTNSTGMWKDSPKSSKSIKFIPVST

| Compound | IC50 [1] | IC50 [2] | inhibition at 30 µM ([1]; HEK293, 30 μM compound, read-out: Cell-Based Functional activity V1b % Inh. @ 30) |
| --- | --- | --- | --- |
| 1-[(N1-Piperidinocarbothioyl-(1-L-carboxymethyl-2-phenylamino)-4-yl]-3-(3-aminopropyl)-1,3-dihydrobenzimidazol-2-one Hydrochloride [Compound 57] | 16800 nM | 260 nM |  |
| CCN(CC)CCn1c(=O)n(C2CCN(C(=S)NC(c3ccccc3)c3ccccc3)CC2)c2ccccc21 [Compound 35, 1-(N1-Piperidinocarbothioyldiphenylmethylamino-4-yl)-3-(2-diethyaminoethyl)-1,3-dihydrobenzimidazol-2-one] | 9990 nM | 75 nM |  |
| CCN(CC)CCn1c(=O)n(C2CCN(C(=S)NC(Cc3ccccc3)C(=O)OC)CC2)c2ccccc21 [Compound 42, 1-(N1-Piperidinocarbothioyl-(2-phenyl-1-L-carboxymethyl)amino-4-yl)-3-(2-diethyaminoethyl)-1,3-dihydrobenzimidazol-2-one] |  | 38 nM | 0% |
| NCCCn1c(=O)n(C2CCN(C(=S)NC(c3ccccc3)c3ccccc3)CC2)c2ccccc21 [Compound 55, 1-[(N1-Piperidinocarbothioyldiphenylmethylamino)-4-yl]-3-(3-aminopropyl)-1,3-dihydrobenzimidazol-2-one Monohydrochloride] | 318 nM | 27 nM |  |
| N=C(N)NCCCn1c(=O)n(C2CCN(C(=S)NC(c3ccccc3)c3ccccc3)CC2)c2ccccc21 [Compound 59, 1-[(N1-Piperidinocarbothioyldiphenylmethylamino)-4-yl]-3-(3-guanidinopropyl)-1,3-dihydrobenzimidazol-2-one] | 6610 nM | 32 nM |  |
